{"source": "patent USRE49128E1", "about": "“Hydroxyl purine compounds and applications thereof” (GUANGDONG RAYNOVENT BIOTECH CO., LTD., priority 2014, dated 2022)", "target": "T1, recombinant full-length PDE2A protein (Homo sapiens, UniProt O00408)", "T1 construct": "Expression of recombinant full-length PDE2A protein in insect Sf9 cells; GST (N); made in house; host or cells: insect Sf9 cells (baculovirus)", "T1 sequence (O00408 whole entry, species assumed)": "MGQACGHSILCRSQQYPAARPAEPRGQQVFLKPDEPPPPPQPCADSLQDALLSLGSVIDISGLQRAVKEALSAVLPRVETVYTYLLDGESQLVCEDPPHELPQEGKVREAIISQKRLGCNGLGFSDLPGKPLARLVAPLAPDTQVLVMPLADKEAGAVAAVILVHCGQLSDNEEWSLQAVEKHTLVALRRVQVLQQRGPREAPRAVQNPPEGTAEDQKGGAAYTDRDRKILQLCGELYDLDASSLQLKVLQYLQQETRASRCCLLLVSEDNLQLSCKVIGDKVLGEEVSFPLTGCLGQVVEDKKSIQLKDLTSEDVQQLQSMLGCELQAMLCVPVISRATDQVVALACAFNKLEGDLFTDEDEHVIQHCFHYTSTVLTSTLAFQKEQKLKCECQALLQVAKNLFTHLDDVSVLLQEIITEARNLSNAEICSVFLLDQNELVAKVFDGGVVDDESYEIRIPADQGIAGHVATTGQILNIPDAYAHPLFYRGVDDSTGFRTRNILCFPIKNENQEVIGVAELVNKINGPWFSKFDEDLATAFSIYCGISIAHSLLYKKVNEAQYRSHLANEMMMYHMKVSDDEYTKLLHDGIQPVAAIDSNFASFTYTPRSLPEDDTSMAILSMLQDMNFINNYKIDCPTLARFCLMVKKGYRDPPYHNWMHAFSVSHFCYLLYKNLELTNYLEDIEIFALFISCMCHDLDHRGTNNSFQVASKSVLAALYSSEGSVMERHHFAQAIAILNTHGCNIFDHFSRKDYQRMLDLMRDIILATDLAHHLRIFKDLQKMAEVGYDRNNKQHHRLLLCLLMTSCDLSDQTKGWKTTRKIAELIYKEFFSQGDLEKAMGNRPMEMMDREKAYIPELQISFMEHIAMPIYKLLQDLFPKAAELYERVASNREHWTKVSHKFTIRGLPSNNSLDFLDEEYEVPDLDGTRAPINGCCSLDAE", "assay": "Evaluation of PDE2 phosphodiesterase inhibitory activity in vitro (fluorescence polarization, Transcreener AMP2/GMP2)", "type": "biochemical", "details": "IC50 classes; substrate 1 μM cGMP; room temperature one hour", "protocol": "Experimental objective: The substituted Alexa Fluor 633 fluorescent dye on the AMP/GMP antibodies was detected by the fluorescence polarization analysis to determine the concentration of AMP/GMP produced in the reaction system, which was used to calculate the IC50 values of the test compounds against PDE2 phosphodiesterase.\nThe measured buffer solution: 10 mM Tris-HCl, pH 7.5, 5 mM MgCl2, 0.01% Brij 35, 1 mM DTT, and 1% DMSO.\nEnzyme: Expression of recombinant full-length PDE2A protein in insect Sf9 cells using N-terminal GST-tag with baculovirus.\nTranscreener® AMP^2/GMP^2 antibody, AMP2/GMP2 AlexaFluor 633 fluorescent dye.\nThe enzyme solution was prepared using freshly prepared buffer solution, and then added to the reaction holes, the DMSO solutions of the test compounds were added by the Echo550 non-contact nanoliter acoustic pipetting system, and then pre-incubated at room temperature for 10 minutes, the reaction was initiated by the addition of the substrate (1 μM cGMP), and then reacted at room temperature for one hour. And then the detection system (Transcreener® AMP^2/GMP^2 antibody, AMP2/GMP2 AlexaFluor 633 fluorescent dye) was added, reacted at room temperature for 90 minutes, the fluorescence polarization was detected using Ex/Em 620/688.\nThe fluorescence polarization intensity was converted to nM concentration by AMP/GMP standard curve, The relative enzyme activity relative to DMSO blank was calculated, IC50 values and curves were calculated using Prism software packages (GraphPad Software, San Diego Calif., USA).", "data": [{"compound": "Cn1cnc2c1c(=O)n(CCCCC1(O)CC1)c(=O)n2C", "note": "[Embodiment 3, 1-(4-(1-Hydroxycyclopropyl)butyl)-3,7-dimethyl-1H-purine-2,6(3H,7H)-dione]", "values": [{"measurement": "IC50", "value": "10 to 50", "unit": "µM"}]}, {"compound": "CCn1cnc2c1c(=O)n(CCCCC(O)(CC)CC)c(=O)n2C", "note": "[Embodiment 42, 7-Ethyl-1-(5-ethyl-5-hydroxyheptyl)-3-methyl-1H-purine-2,6(3H,7H)-dione]", "values": [{"measurement": "IC50", "value": "1 to 10", "unit": "µM"}]}, {"compound": "Cc1sc(C(C)(O)C(F)(F)F)nc1Cn1c(=O)c2c(ncn2C)n(C)c1=O", "note": "(stereo not shown) [Embodiment 34]", "values": [{"measurement": "IC50", "value": "10 to 50", "unit": "µM"}]}, {"compound": "Cn1c(=O)n(CC2(C)CCC(O)(C(F)(F)F)CC2)c(=O)c2c1ncn2CC1CC1", "note": "(stereo not shown) [Embodiment 53]", "values": [{"measurement": "IC50", "value": "10 to 50", "unit": "µM"}]}, {"compound": "COCC1(Cn2c(=O)c3c(ncn3CC3CC3)n(C)c2=O)CCC(O)(C(F)(F)F)CC1", "note": "(stereo not shown) [Embodiment 52]", "values": [{"measurement": "IC50", "value": "10 to 50", "unit": "µM"}]}, {"compound": "Cn1cnc2c1c(=O)n(C[C@H]1CC[C@H](C3(O)CC3)CC1)c(=O)n2C", "note": "[Embodiment 21, 1-[[trans-4-(1-hydroxycyclopropyl)cyclohexyl]methyl]-3,7-dimethylpurine-2,6-dione]", "values": [{"measurement": "IC50", "value": "10 to 50", "unit": "µM"}]}, {"compound": "CCC1(O)CCCC(CCn2c(=O)c3c(ncn3C)n(C)c2=O)C1", "note": "(stereo not shown) [Embodiment 22, 1-(2-(3-Ethyl-3-hydroxycyclohexyl)ethyl)-3,7-dimethyl-1H-purine-2,6(3H,7H)-dione]", "values": [{"measurement": "IC50", "value": "1 to 10", "unit": "µM"}]}, {"compound": "Cn1cnc2c1c(=O)n(Cc1cc(C(O)(C(F)(F)F)C(F)(F)F)no1)c(=O)n2C", "note": "[Embodiment 31]", "values": [{"measurement": "IC50", "value": "10 to 50", "unit": "µM"}]}, {"compound": "CC(C)Cn1cnc2c1c(=O)n(CC1CCC(O)(C(F)(F)F)CC1)c(=O)n2C", "note": "(stereo not shown) [Embodiment 57, 1-((4-Hydroxy-4-(trifluoromethyl)cyclohexyl)methyl)-7-isobutyl-3-methyl-1H-purine-2,6(3H,7H)-dione]", "values": [{"measurement": "IC50", "value": "1 to 10", "unit": "µM"}]}, {"compound": "Cc1sc(C(C)(O)C(F)(F)F)nc1Cn1c(=O)c2c(ncn2CC2CC2)n(C)c1=O", "note": "(stereo not shown) [Embodiment 54, 7-(Cyclopropylmethyl)-3-methyl-1-((5-methyl-2-(1,1,1-trifluoro-2-hydroxypropan-2-yl)thiazol-4-yl)methyl)-1H-purine-2,6-(3H,7H)-dione]", "values": [{"measurement": "IC50", "value": "1 to 10", "unit": "µM"}]}, {"compound": "Cc1nc(C(C)(O)C(F)(F)F)sc1CCn1c(=O)c2c(ncn2C)n(C)c1=O", "note": "(stereo not shown) [Embodiment 36, 3,7-Dimethyl-1-(2-(4-methyl-2-(1,1,1-trifluoro-2-hydroxypropan-2-yl)thiazol-5-yl)ethyl)-1H-purine-2,6-(3H,7H)-dione]", "values": [{"measurement": "IC50", "value": "10 to 50", "unit": "µM"}]}, {"compound": "Cn1c(=O)n(CC2CCC(C)(O)CC2)c(=O)c2c1ncn2CC(F)(F)F", "note": "(single isomer, unassigned) [Embodiment 46 isomer 2]", "values": [{"measurement": "IC50", "value": "10 to 50", "unit": "µM"}]}, {"compound": "Cn1c(=O)n(Cc2ccc(C(C)(O)C(F)(F)F)cn2)c(=O)c2c1ncn2CC1CC1", "note": "(stereo not shown) [Embodiment 56]", "values": [{"measurement": "IC50", "value": "10 to 50", "unit": "µM"}]}, {"compound": "3,7-Dimethyl-1-[[3-[2,2,2-trifluoro-1-hydroxy-1-(trifluoromethyl)ethyl]cyclobutyl]methyl]purine-2,6-dione [Embodiment 8 isomer 1]", "values": [{"measurement": "IC50", "value": "1 to 10", "unit": "µM"}]}, {"compound": "CC(C)n1cnc2c1c(=O)n(CC1CCC(O)(C(F)(F)F)CC1)c(=O)n2C", "note": "(stereo not shown) [Embodiment 48]", "values": [{"measurement": "IC50", "value": "10 to 50", "unit": "µM"}]}, {"compound": "CCC(O)(CC)C1CCC(Cn2c(=O)c3c(ncn3C)n(C)c2=O)CC1", "note": "(stereo not shown) [Embodiment 18, 1-((4-(3-Hydroxypentan-3-yl)-cyclohexyl)methyl)-3,7-dimethyl-1H-purine-2,6(3H,7H)-dione]", "values": [{"measurement": "IC50", "value": "1 to 10", "unit": "µM"}]}, {"compound": "Cn1cnc2c1c(=O)n(CCC1CCC(O)(C(F)(F)F)CC1)c(=O)n2C", "note": "(single isomer, unassigned) [Embodiment 15 isomer 1]", "values": [{"measurement": "IC50", "value": "1 to 10", "unit": "µM"}]}, {"compound": "CCn1cnc2c1c(=O)n(CCCCC(C)(O)C(F)(F)F)c(=O)n2C", "note": "(stereo not shown) [Embodiment 43, 7-Ethyl-3-methyl-1-(6,6,6-trifluoro-5-hydroxy-5-methylhexyl)-1H-purine-2,6(3H,7H)-dione]", "values": [{"measurement": "IC50", "value": "10 to 50", "unit": "µM"}]}, {"compound": "Cn1cnc2c1c(=O)n(Cc1cnc(C(C)(O)C(F)(F)F)s1)c(=O)n2C", "note": "(stereo not shown) [Embodiment 35, 3,7-Dimethyl-1-((2-(1,1,1-trifluoro-2-hydroxypropan-2-yl)thiazol-5-yl)methyl)-1H-purine-2,6-(3H,7H)-dione]", "values": [{"measurement": "IC50", "value": "10 to 50", "unit": "µM"}]}, {"compound": "Cn1cnc2c1c(=O)n(Cc1cccc(C(C)(O)C(F)(F)F)c1)c(=O)n2C", "note": "(stereo not shown) [Embodiment 26, 3,7-dimethyl-1-(3-(1,1,1-trifluoro-2-hydroxypropan-2-yl)benzyl)-1H-purine-2,6-(3H,7H)-dione]", "values": [{"measurement": "IC50", "value": "10 to 50", "unit": "µM"}]}, {"compound": "Cn1cnc2c1c(=O)n(C[C@H]1CC[C@H](C(O)(C(F)(F)F)C(F)(F)F)CC1)c(=O)n2C", "note": "[Embodiment 20, 3,7-Dimethyl-1-[trans-4-(2,2,2-trifluoro-1-hydroxy-1-trifluoromethyl-ethyl)cyclohexylmethyl]-3,7-dihydro-purine-2,6-dione]", "values": [{"measurement": "IC50", "value": "10 to 50", "unit": "µM"}]}, {"compound": "Cn1cnc2c1c(=O)n(Cc1csc(C(C)(O)C(F)(F)F)n1)c(=O)n2C", "note": "(stereo not shown) [Embodiment 33, 3,7-Dimethyl-1-((2-(1,1,1-trifluoro-2-hydroxypropan-2-yl)thiazol-4-yl)methyl)-1H-purine-2,6-(3H,7H)-dione]", "values": [{"measurement": "IC50", "value": "10 to 50", "unit": "µM"}]}, {"compound": "Cn1cnc2c1c(=O)n(CC1CC(C(C)(O)C(F)(F)F)C1)c(=O)n2C", "note": "(single isomer, unassigned) [Embodiment 9 isomer 1]", "values": [{"measurement": "IC50", "value": "10 to 50", "unit": "µM"}]}, {"compound": "Cn1cnc2c1c(=O)n(CC1CC(O)(C(F)(F)F)C1)c(=O)n2C", "note": "(stereo not shown) [Embodiment 5]", "values": [{"measurement": "IC50", "value": "10 to 50", "unit": "µM"}]}, {"compound": "Cn1c(=O)n(CC2CCC(O)(C(F)(F)F)CC2)c(=O)c2c1ncn2CC1CC1", "note": "(single isomer, unassigned) [Embodiment 50 isomer 1, 7-(Cyclopropylmethyl)-1-((4-hydroxy-4-(trifluoromethyl)cyclohexyl)methyl)-3-methyl-1H-purine-2,6(3H,7H)-dione]", "values": [{"measurement": "IC50", "value": "10 to 50", "unit": "µM"}]}, {"compound": "Cn1cnc2c1c(=O)n(CC1(C(C)(O)C(F)(F)F)CC1)c(=O)n2C", "note": "(stereo not shown) [Embodiment 4, 3,7-Dimethyl-1-((1-(1,1,1-trifluoro-2-hydroxypropan-2-yl)cyclopropyl)methyl)-1H-purine-2,6-(3H,7H)-dione]", "values": [{"measurement": "IC50", "value": "1 to 10", "unit": "µM"}]}, {"compound": "CCC(O)(CC)c1ccc(Cn2c(=O)c3c(ncn3C)n(C)c2=O)cc1", "note": "[Embodiment 25, 1-(4-(3-Hydroxypentan-3-yl)benzyl)-3,7-dimethyl-1H-purine-2,6(3H,7H)-dione]", "values": [{"measurement": "IC50", "value": "1 to 10", "unit": "µM"}]}, {"compound": "Cn1c(=O)n(CCCCC(C)(O)C(F)(F)F)c(=O)c2c1ncn2C1CC1", "note": "(stereo not shown) [Embodiment 47, 7-Cyclopropyl-3-methyl-1-(6,6,6-trifluoro-5-hydroxy-5-methylhexyl)-1H-purine-2,6(3H,7H)-dione]", "values": [{"measurement": "IC50", "value": "10 to 50", "unit": "µM"}]}, {"compound": "Cn1c(=O)n(CC2CCC(C)(O)CC2)c(=O)c2c1ncn2CC1CC1", "note": "(single isomer, unassigned) [Embodiment 51 isomer 1]", "values": [{"measurement": "IC50", "value": "10 to 50", "unit": "µM"}]}, {"compound": "Cn1cnc2c1c(=O)n(C[C@H]1CC[C@H](C(C)(O)C(F)(F)F)CC1)c(=O)n2C", "note": "(stereo partly drawn) [Embodiment 19, 3,7-Dimethyl-1-[[trans-4-(2,2,2-trifluoro-1-hydroxy-1-methyl-ethyl)cyclohexyl]methyl]purine-2,6-dione]", "values": [{"measurement": "IC50", "value": "10 to 50", "unit": "µM"}]}, {"compound": "3,7-Dimethyl-1-[[3-[2,2,2-trifluoro-1-hydroxy-1-(trifluoromethyl)ethyl]cyclobutyl]methyl]purine-2,6-dione [Embodiment 8 isomer 2]", "values": [{"measurement": "IC50", "value": "10 to 50", "unit": "µM"}]}]}
